Measured values taken from patent US8889370B2, “Method of determining inhibitors of coagulation” (Siemens Healthcare Diagnostics Products GmbH, priority 2010, dated 2014).
Where two headings read alike, the source gives them in different places.

Molecular target: T1, factor Xa (Homo sapiens, UniProt P00742)
T1 construct: an F Xa reagent consisting of a lyophilized plasma fraction containing factor Xa; purchased Siemens Healthcare Diagnostics (Berichrom heparin assay, F Xa reagent); host or cells: plasma fraction
T1 sequence (P00742 235-488 limits assumed): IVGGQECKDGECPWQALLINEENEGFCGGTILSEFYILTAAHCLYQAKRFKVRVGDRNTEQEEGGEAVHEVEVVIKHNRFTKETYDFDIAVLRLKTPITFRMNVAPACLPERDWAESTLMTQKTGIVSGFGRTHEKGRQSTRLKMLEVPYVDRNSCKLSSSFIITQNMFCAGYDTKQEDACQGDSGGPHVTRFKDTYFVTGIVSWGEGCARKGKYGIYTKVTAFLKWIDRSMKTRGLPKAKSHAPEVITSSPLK
T1 sequence (P00742 41-179 partner limits assumed): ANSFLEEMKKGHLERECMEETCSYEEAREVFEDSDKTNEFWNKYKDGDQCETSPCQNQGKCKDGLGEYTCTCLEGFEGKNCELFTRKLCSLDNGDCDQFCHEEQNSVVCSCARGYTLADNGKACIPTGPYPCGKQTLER
Assay: Determination of the F Xa binding constant (Ki) of peptide aldehyde ligands, chromogenic assay with Berichrom heparin assay reagents, Dixon plot
Assay type: biochemical
Protocol: The kinetic data of the peptide aldehyde ligands were determined in chromogenic assay formats by measuring the rate of hydrolysis of chromogenic peptide substrates which compete with the peptide aldehyde ligands for binding to the active site of the particular enzyme, at various substrate concentrations and peptide aldehyde-ligand concentrations. The binding constant (Ki) was determined by a known method (Dixon, M., 1953, Biochem J, 55, 170-171).
The F Xa binding constant was determined using the reagents of the Berichrom® heparin assay from Siemens Healthcare Diagnostics. The Berichrom® heparin assay consists of: an F Xa reagent consisting of a lyophilized plasma fraction containing factor Xa, and additives such as Tris, NaCl, EDTA and preservatives, a chromogenic substrate reagent (Z-D-Leu-Gly-Arg-ANBA-methyl-amide), a dilution reagent for reconstitution, and a dextran sulfate reagent consisting of lyophilized dextran sulfate.
After reconstitution in 10 ml of dilution reagent, the dextran sulfate concentration is 0.02 g/l. The F Xa reagent is reconstituted with the reconstituted dextran sulfate reagent. The substrate reagent, after constitution with 2 ml of deionized water, contains 4 mmol/l Z-D-Leu-Gly-Arg-ANBA-methyl-amide. Dilutions of the substrate reagent were prepared with deionized water. The peptide aldehyde ligands prepared according to example 1 were dissolved in water and used as sample. The assays were carried out automatically in a BCS® XP coagulation analyzer (Siemens Healthcare Diagnostics, Marburg, Germany).
A reaction mix was mixed together as follows:
15 μl of sample (peptide aldehyde ligand B-r-G-R—H or B-f-P—R—H), […]
30 μl of substrate reagent (Z-D-Leu-Gly-Arg-ANBA-methyl-amide).
The reaction rate in mE/min was determined on the basis of the increase in optical density of the reaction mix at a wavelength of 405 nm. For this, the optical density of the reaction mixes was determined in a time interval from 10 to 70 seconds.

Compound N=C(N)NCCC[C@@H](C=O)NC(=O)CNC(=O)[C@@H](CCCNC(=N)N)NC(=O)CCC(=O)NCCCOCCOCCOCCCNC(=O)CCCC[C@@H]1SC[C@@H]2NC(=O)N[C@@H]21 [B-r-G-R-H, biotinyl-Ttds-D-Arg-Gly-Arg-H] has a 1/Reaction rate (CB-r-G-R-H 0.20380 μM, Csubstrate = 0.5 mM) of 5.521 min/E, a 1/Reaction rate (CB-r-G-R-H 0.20380 μM, Csubstrate = 2 mM) of 1.457 min/E and a 1/Reaction rate (CB-r-G-R-H 0.20380 μM, Csubstrate = 4 mM) of 0.8262 min/E. For the same compound, the 1/Reaction rate (CB-r-G-R-H 0.32609 μM, Csubstrate = 0.5 mM) was 6.13 min/E, the 1/Reaction rate (CB-r-G-R-H 0.32609 μM, Csubstrate = 2 mM) was 1.612 min/E and the 1/Reaction rate (CB-r-G-R-H 0.32609 μM, Csubstrate = 4 mM) was 0.9061 min/E. It also gave a 1/Reaction rate (CB-r-G-R-H 0.40761 μM, Csubstrate = 0.5 mM) of 6.408 min/E, a 1/Reaction rate (CB-r-G-R-H 0.40761 μM, Csubstrate = 2 mM) of 1.659 min/E and a 1/Reaction rate (CB-r-G-R-H 0.40761 μM, Csubstrate = 4 mM) of 0.9259 min/E. It also gave a 1/Reaction rate (CB-r-G-R-H 0.65217 μM, Csubstrate = 0.5 mM) of 7.754 min/E, a 1/Reaction rate (CB-r-G-R-H 0.65217 μM, Csubstrate = 2 mM) of 1.975 min/E and a 1/Reaction rate (CB-r-G-R-H 0.65217 μM, Csubstrate = 4 mM) of 1.099 min/E. The 1/Reaction rate (CB-r-G-R-H 0.81522 μM, Csubstrate = 0.5 mM) was 8.403 min/E, the 1/Reaction rate (CB-r-G-R-H 0.81522 μM, Csubstrate = 2 mM) was 2.115 min/E and the 1/Reaction rate (CB-r-G-R-H 0.81522 μM, Csubstrate = 4 mM) was 1.177 min/E. For the same compound, the 1/Reaction rate (CB-r-G-R-H 1.30435 μM, Csubstrate = 0.5 mM) was 12.05 min/E, the 1/Reaction rate (CB-r-G-R-H 1.30435 μM, Csubstrate = 2 mM) was 2.802 min/E and the 1/Reaction rate (CB-r-G-R-H 1.30435 μM, Csubstrate = 4 mM) was 1.476 min/E. It also gave a 1/Reaction rate (CB-r-G-R-H 1.63043 μM, Csubstrate = 0.5 mM) of 13.97 min/E, a 1/Reaction rate (CB-r-G-R-H 1.63043 μM, Csubstrate = 2 mM) of 3.147 min/E and a 1/Reaction rate (CB-r-G-R-H 1.63043 μM, Csubstrate = 4 mM) of 1.679 min/E. The 1/Reaction rate (CB-r-G-R-H 2.60870 μM, Csubstrate = 0.5 mM) was 20.14 min/E, the 1/Reaction rate (CB-r-G-R-H 2.60870 μM, Csubstrate = 2 mM) was 4.627 min/E and the 1/Reaction rate (CB-r-G-R-H 2.60870 μM, Csubstrate = 4 mM) was 2.274 min/E. For the same compound, the 1/Reaction rate (CB-r-G-R-H 3.26087 μM, Csubstrate = 0.5 mM) was 26.42 min/E, the 1/Reaction rate (CB-r-G-R-H 3.26087 μM, Csubstrate = 2 mM) was 5.52 min/E and the 1/Reaction rate (CB-r-G-R-H 3.26087 μM, Csubstrate = 4 mM) was 2.728 min/E. The 1/Reaction rate (CB-r-G-R-H 4.89130 μM, Csubstrate = 0.5 mM) was 37.79 min/E, the 1/Reaction rate (CB-r-G-R-H 4.89130 μM, Csubstrate = 2 mM) was 8.244 min/E and the 1/Reaction rate (CB-r-G-R-H 4.89130 μM, Csubstrate = 4 mM) was 3.745 min/E. It also gave a 1/Reaction rate (CB-r-G-R-H 6.52174 μM, Csubstrate = 0.5 mM) of 52.69 min/E, a 1/Reaction rate (CB-r-G-R-H 6.52174 μM, Csubstrate = 2 mM) of 10.45 min/E and a 1/Reaction rate (CB-r-G-R-H 6.52174 μM, Csubstrate = 4 mM) of 4.819 min/E. For the same compound, the 1/Reaction rate (CB-r-G-R-H 8.15217 μM, Csubstrate = 0.5 mM) was 62.32 min/E, the 1/Reaction rate (CB-r-G-R-H 8.15217 μM, Csubstrate = 2 mM) was 12.99 min/E and the 1/Reaction rate (CB-r-G-R-H 8.15217 μM, Csubstrate = 4 mM) was 5.669 min/E. The 1/Reaction rate (CB-r-G-R-H 13.04348 μM, Csubstrate = 0.5 mM) was 98.11 min/E, the 1/Reaction rate (CB-r-G-R-H 13.04348 μM, Csubstrate = 2 mM) was 19.61 min/E and the 1/Reaction rate (CB-r-G-R-H 13.04348 μM, Csubstrate = 4 mM) was 8.47 min/E. For the same compound, the “Intersect of regression curve 1/reaction rate vs ligand concentration” value (shortened to “Intersect … vs ligand concentration”) (Csubstrate 0.5 mM) was 2.8743 min/E, the “Slope of regression curve 1/reaction rate vs ligand concentration” value (“Slope … vs ligand concentration” for short) (Csubstrate 0.5 mM) was 7.3110 min/E μM and the “Intersect … vs ligand concentration” value (Csubstrate 2 mM) was 1.0169 min/E. For the same compound, the “Slope … vs ligand concentration” value (Csubstrate 2 mM) was 1.4375 min/E μM, the “Intersect … vs ligand concentration” value (Csubstrate 4 mM) was 0.7187 min/E and the “Slope … vs ligand concentration” value (Csubstrate 4 mM) was 0.6037 min/E μM. The Ki (intersection of regression curves Csubstrate 2 and 0.5 mM, read-out: Ki2&3 F Xa binding constant) was 316 nM, the Ki (intersection of regression curves Csubstrate 4 and 0.5 mM, read-out: Ki1&3 F Xa binding constant) was 321 nM and the Ki (intersection of regression curves Csubstrate 4 and 2 mM, read-out: Ki1&2 F Xa binding constant) was 358 nM. The “binding of the peptide aldehyde with F Xa (reversible or irreversible)” value (intersections of regression curves not on the x axis) was “reversible” and the Ki (read-out: average F Xa binding constant KiM) was 332 nM.
